Laboratory results published in patent US8163909B2, “Substituted hydroxyethyl amine compounds as beta-secretase modulators and methods of use” (Amgen Inc., priority 2007, dated 2012).

Experiments:
[1] = Microsomal stability assay, human liver microsomes; conditions: human liver microsomal data;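 further: pooled human liver microsomes at 0.25 mg/mL with 1 µM compound and NADPH at 37 °C, pH 7.4, for 30 min, unchanged parent quantified by LC-MS/MS against the 0 min sample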
[2] = test system: Aβ40 in conditioned medium of cells stably expressing Amyloid Precursor Protein (APP); assay: In vitro BACE cell-based assay (Aβ40 in conditioned medium, sandwich ELISA); conditions: Homo sapiens, HEK293, cell-based assay, HEK cells, IC50's in uM; read-out: HEK cell assay;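 further: compounds added as a dilution series, secreted peptide quantified by europium time-resolved fluorescence readout, potency fitted from percent of control versus compound concentration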
[3] = Microsomal stability assay, rat liver microsomes; conditions: rat liver microsomal data;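 further: rat liver microsomes (0.25 mg/mL) with about 1 µM compound plus 1 mM NADPH, pH 7.4, 37 °C for 30 min, parent left measured by LC-MS/MS against 0 min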
CYP2D6 = CYP2D6 (Homo sapiens, UniProt P10635); assay: CYP2D6 inhibition assay (bufuralol, pooled human liver microsomes); conditions: 2D6 IC50, CYP enzyme inhibition
Sequence of CYP2D6 (P10635 whole entry): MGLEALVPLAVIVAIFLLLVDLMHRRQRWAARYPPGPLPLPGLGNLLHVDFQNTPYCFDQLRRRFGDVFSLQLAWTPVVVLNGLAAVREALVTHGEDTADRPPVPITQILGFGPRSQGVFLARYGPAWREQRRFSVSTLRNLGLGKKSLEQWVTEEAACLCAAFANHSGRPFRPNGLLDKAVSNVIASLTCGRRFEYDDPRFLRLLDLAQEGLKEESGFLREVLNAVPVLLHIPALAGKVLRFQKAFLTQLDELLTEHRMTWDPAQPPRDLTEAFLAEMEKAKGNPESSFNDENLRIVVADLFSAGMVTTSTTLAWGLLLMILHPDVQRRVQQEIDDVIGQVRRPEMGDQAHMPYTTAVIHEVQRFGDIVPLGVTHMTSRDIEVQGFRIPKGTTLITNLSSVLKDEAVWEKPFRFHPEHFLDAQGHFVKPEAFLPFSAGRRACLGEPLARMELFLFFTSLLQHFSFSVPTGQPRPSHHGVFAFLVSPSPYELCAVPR

[4] = biological target: Beta Secretase enzyme (BACE) (Homo sapiens, UniProt P56817); assay: In vitro enzymatic BACE FRET (fluorescence resonance energy transfer) assay; format: biochemical; conditions: BACE enzyme assay, IC50's in uM; read-out: BACE1 FRET assay;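 further: fluorescence read after 1 h with 50 nM quenched peptide substrate spanning the BACE cleavage site, in pH 4.2 acetate buffer containing 10% DMSO and nonionic detergent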
Sequence of Beta Secretase enzyme (BACE) (P56817 46-501): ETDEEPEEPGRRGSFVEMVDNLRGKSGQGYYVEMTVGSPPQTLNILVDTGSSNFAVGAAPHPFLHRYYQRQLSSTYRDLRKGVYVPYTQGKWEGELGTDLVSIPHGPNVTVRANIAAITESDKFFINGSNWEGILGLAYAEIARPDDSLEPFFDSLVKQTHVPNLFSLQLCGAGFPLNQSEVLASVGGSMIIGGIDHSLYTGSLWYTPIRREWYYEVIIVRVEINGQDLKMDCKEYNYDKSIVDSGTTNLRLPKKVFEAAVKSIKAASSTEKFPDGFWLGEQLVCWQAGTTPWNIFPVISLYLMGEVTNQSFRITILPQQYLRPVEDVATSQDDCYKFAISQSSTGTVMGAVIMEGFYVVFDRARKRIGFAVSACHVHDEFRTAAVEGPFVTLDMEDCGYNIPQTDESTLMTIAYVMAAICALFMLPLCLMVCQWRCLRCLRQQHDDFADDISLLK

CYP3A4 (CYP3A) = CYP3A4 (CYP3A) (Homo sapiens, UniProt P08684); assay: in vitro; conditions: microsomes, pH 7.4;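 further: inhibition of CYP3A-mediated 1-hydroxymidazolam formation after 10 min incubation with NADPH, quantified by HPLC MS relative to metabolite produced without test compound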
Sequence of CYP3A4 (CYP3A) (P08684 2-503): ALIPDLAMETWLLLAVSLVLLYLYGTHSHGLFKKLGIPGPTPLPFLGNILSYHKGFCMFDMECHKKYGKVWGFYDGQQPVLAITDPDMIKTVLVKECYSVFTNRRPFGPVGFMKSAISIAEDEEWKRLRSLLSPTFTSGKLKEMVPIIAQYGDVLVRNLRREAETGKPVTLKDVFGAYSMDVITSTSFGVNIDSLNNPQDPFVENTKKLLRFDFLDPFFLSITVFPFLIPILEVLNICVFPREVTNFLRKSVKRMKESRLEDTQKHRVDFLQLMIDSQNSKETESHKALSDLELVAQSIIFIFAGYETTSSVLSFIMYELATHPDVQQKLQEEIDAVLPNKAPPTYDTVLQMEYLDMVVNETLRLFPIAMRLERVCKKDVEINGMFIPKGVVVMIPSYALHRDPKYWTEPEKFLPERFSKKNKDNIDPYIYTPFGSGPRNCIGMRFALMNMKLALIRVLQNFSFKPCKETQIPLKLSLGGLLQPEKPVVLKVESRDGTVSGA

SMILES	HLM [1] [µL/min/mg]	IC50 [2] [µM]	RLM [3] [µL/min/mg]	IC50 (CYP2D6) [nM]	IC50 [4] [µM]	IC50 (CYP3A4 (CYP3A)) [nM]
COCC(=O)N[C@@H](Cc1cc(Br)cc(-c2nccs2)c1)[C@H](O)CN[C@H]1CC2(CCC2)Oc2ncc(CC(C)(C)C)cc21 [compound 851]	71	0.057	59	700	0.013	200
CO[C@H](C)C(=O)N[C@@H](Cc1cc(F)cc(-c2nccs2)c1)[C@H](O)CN[C@H]1CC2(CCC2)Oc2ncc(Br)cc21 [compound 852]	106	0.094	156	300	0.246	300
CCCc1cnc2c(c1)[C@@H](NC[C@@H](O)[C@H](Cc1cc(F)cc(-c3nccs3)c1)NC(=O)[C@@H](C)OC)CC1(CCC1)O2 [compound 853]	93	0.075	101	700	0.043	400
COCC(=O)N[C@@H](Cc1cccc(-n2cccn2)c1)[C@H](O)CN[C@H]1CC2(CCC2)Oc2ncc(CC(C)(C)C)cc21 [compound 854]	515	0.007	210	2500	0.007	600
COCC(=O)N[C@@H](Cc1cccc(-c2nccs2)c1)[C@H](O)CN[C@H]1CC2(CCC2)Oc2ncc([C@@H]3CC3(C)C)cc21 [compound 857, N-((1S,2R)-3-(((4′S)-6′-((1R)-2,2-dimethylcyclopropyl)-3′,4′-dihydrospiro[cyclobutane-1,2′-pyrano[2,3-b]pyridin]-4′-yl)amino)-2-hydroxy-1-(3-(1,3-thiazol-2-yl)benzyl)propyl)-2-methoxyacetamide]	51	0.008	46	350	0.004	100
CCC(=O)N[C@@H](Cc1cc(F)cc(-c2nccs2)c1)[C@H](O)CN[C@H]1CC2(CCC2)Oc2ncc(CC(C)(C)C)cc21 [compound 860]	62	0.015	69	300	0.004	200
CCOCC(=O)N[C@@H](Cc1cc(F)cc(-c2nccs2)c1)[C@H](O)CN[C@H]1CC2(CCC2)Oc2ncc(CC(C)(C)C)cc21 [compound 862, N-((1S,2R)-3-(((4′S)-6′-(2,2-dimethylpropyl)-3′,4′-dihydrospiro[cyclobutane-1,2′-pyrano[2,3-b]pyridin]-4′-yl)amino)-1-(3-fluoro-5-(1,3-thiazol-2-yl)benzyl)-2-hydroxypropyl)-2-ethoxyacetamide]	43	0.009	64	650	0.004	300
CCCc1cnc2c(c1)[C@@H](NC[C@@H](O)[C@H](Cc1cc(F)cc(-c3nccs3)c1)NC(=O)COC)CC1(CCC1)O2 [compound 865]	125	0.879	74	700	0.086	300
COCC(=O)N[C@@H](Cc1cc(F)cc(-c2nccs2)c1)[C@H](O)CN[C@@]1(C)CC2(CCC2)Oc2ncc(CC(C)(C)C)cc21 [compound 866]	84	0.88	90	900	0.177	200
COC(OC)C(=O)N[C@@H](Cc1cc(F)cc(-c2nccs2)c1)[C@H](O)CN[C@H]1CC2(CCC2)Oc2ncc(CC(C)(C)C)cc21 [compound 871]	59	0.01	73	700	0.007	200
CC(C)(C)Cc1cnc2c(c1)[C@@H](NC[C@@H](O)[C@H](Cc1cc(F)cc(-c3nccs3)c1)NC(=O)C1(C)CC1)CC1(CCC1)O2 [compound 876]	64	0.132	91	300	0.036	200
